Values quoted from earlier work as cited in patent publication US20210000980A1, “METHOD AND COMPOSITION FOR THE DETECTION OF ARTHROPODS” (ARKE' S.r.l., priority 2018, published 2021).

Test system: lice
Settings: 10% formic acid solution in water

For `O=CO` [formic acid], the lice removed is given as ≤ 94%.
